≈ marks a conversion by molar mass, not a printed value.
tested on: THP-1; assay: Cytotoxicity against human THP1 cells after 24 hrs by MTT assay; format: functional, cell-based; conditions: THP-1, 24 h

SMILES	IC50
CCCCc1cc2ccccc2nc1-c1cn(-c2ccc(F)cc2)nn1	78.3 µg/mL (≈ 226 µM)
CCCCCCCCCCn1cc(-c2nc3ccccc3cc2CCCCC)nn1	88 µg/mL (≈ 216 µM)
O=c1[nH]cc(F)c(=O)[nH]1 [FLUOROURACIL]	0.54 µg/mL (≈ 4.15 µM)
CCCc1cc2ccccc2nc1-c1cn(CCC(F)(F)C(F)(F)C(F)(F)C(F)(F)C(F)(F)C(F)(F)C(F)(F)C(F)(F)F)nn1	> 100 µg/mL
CCCCCCCCCCn1cc(-c2nc3ccccc3cc2CC)nn1	34.3 µg/mL (≈ 94 µM)
Cc1cc2ccccc2nc1-c1cn(CCC(F)(F)C(F)(F)C(F)(F)C(F)(F)C(F)(F)C(F)(F)C(F)(F)C(F)(F)F)nn1	> 100 µg/mL
CCCCc1cc2ccccc2nc1-c1cn(CCC(F)(F)C(F)(F)C(F)(F)C(F)(F)C(F)(F)C(F)(F)C(F)(F)C(F)(F)F)nn1	> 100 µg/mL
CCCCCCCCCCn1cc(-c2nc3ccccc3cc2C)nn1	> 100 µg/mL
CCCCCc1cc2ccccc2nc1-c1cn(-c2ccc(F)cc2)nn1	> 100 µg/mL
CCCCCc1cc2ccccc2nc1-c1cn(CCC(F)(F)C(F)(F)C(F)(F)C(F)(F)C(F)(F)C(F)(F)C(F)(F)C(F)(F)F)nn1	> 100 µg/mL
CCCCCCCCCCn1cc(-c2nc3ccccc3cc2CCCC)nn1	> 100 µg/mL
CCc1cc2ccccc2nc1-c1cn(CCC(F)(F)C(F)(F)C(F)(F)C(F)(F)C(F)(F)C(F)(F)C(F)(F)C(F)(F)F)nn1	> 100 µg/mL
CCCc1cc2ccccc2nc1-c1cn(-c2ccc(F)cc2)nn1	> 100 µg/mL
Cc1cc2ccccc2nc1-c1cn(-c2ccc(F)cc2)nn1	> 100 µg/mL
CCc1cc2ccccc2nc1-c1cn(-c2ccc(F)cc2)nn1	> 100 µg/mL
CCCCCCCCCCn1cc(-c2nc3ccccc3cc2CCC)nn1	> 100 µg/mL

tested on: HeLa; assay: Cytotoxicity against human HeLa cells after 24 hrs by MTT assay; format: functional, cell-based; conditions: not given

SMILES	IC50
CCCCc1cc2ccccc2nc1-c1cn(-c2ccc(F)cc2)nn1	> 100 µg/mL
CCCCCCCCCCn1cc(-c2nc3ccccc3cc2CCCCC)nn1	> 100 µg/mL
O=c1[nH]cc(F)c(=O)[nH]1 [FLUOROURACIL]	1.28 µg/mL (≈ 9.84 µM)
CCCc1cc2ccccc2nc1-c1cn(CCC(F)(F)C(F)(F)C(F)(F)C(F)(F)C(F)(F)C(F)(F)C(F)(F)C(F)(F)F)nn1	37.8 µg/mL (≈ 55.2 µM)
CCCCCCCCCCn1cc(-c2nc3ccccc3cc2CC)nn1	> 100 µg/mL
Cc1cc2ccccc2nc1-c1cn(CCC(F)(F)C(F)(F)C(F)(F)C(F)(F)C(F)(F)C(F)(F)C(F)(F)C(F)(F)F)nn1	> 100 µg/mL
CCCCc1cc2ccccc2nc1-c1cn(CCC(F)(F)C(F)(F)C(F)(F)C(F)(F)C(F)(F)C(F)(F)C(F)(F)C(F)(F)F)nn1	32.8 µg/mL (≈ 47 µM)
CCCCCCCCCCn1cc(-c2nc3ccccc3cc2C)nn1	28.2 µg/mL (≈ 80.4 µM)
CCCCCc1cc2ccccc2nc1-c1cn(-c2ccc(F)cc2)nn1	> 100 µg/mL
CCCCCc1cc2ccccc2nc1-c1cn(CCC(F)(F)C(F)(F)C(F)(F)C(F)(F)C(F)(F)C(F)(F)C(F)(F)C(F)(F)F)nn1	> 100 µg/mL
CCCCCCCCCCn1cc(-c2nc3ccccc3cc2CCCC)nn1	> 100 µg/mL
CCc1cc2ccccc2nc1-c1cn(CCC(F)(F)C(F)(F)C(F)(F)C(F)(F)C(F)(F)C(F)(F)C(F)(F)C(F)(F)F)nn1	> 100 µg/mL
CCCc1cc2ccccc2nc1-c1cn(-c2ccc(F)cc2)nn1	> 100 µg/mL
Cc1cc2ccccc2nc1-c1cn(-c2ccc(F)cc2)nn1	> 100 µg/mL
CCc1cc2ccccc2nc1-c1cn(-c2ccc(F)cc2)nn1	> 100 µg/mL
CCCCCCCCCCn1cc(-c2nc3ccccc3cc2CCC)nn1	> 100 µg/mL

tested on: U-937; assay: Cytotoxicity against human U937 cells after 24 hrs by MTT assay; format: functional, cell-based; conditions: U-937, 24 h

SMILES	IC50
CCCCc1cc2ccccc2nc1-c1cn(-c2ccc(F)cc2)nn1	66.2 µg/mL (≈ 191 µM)
CCCCCCCCCCn1cc(-c2nc3ccccc3cc2CCCCC)nn1	18.2 µg/mL (≈ 44.7 µM)
O=c1[nH]cc(F)c(=O)[nH]1 [FLUOROURACIL]	0.87 µg/mL (≈ 6.69 µM)
CCCc1cc2ccccc2nc1-c1cn(CCC(F)(F)C(F)(F)C(F)(F)C(F)(F)C(F)(F)C(F)(F)C(F)(F)C(F)(F)F)nn1	> 100 µg/mL
CCCCCCCCCCn1cc(-c2nc3ccccc3cc2CC)nn1	12.7 µg/mL (≈ 34.9 µM)
Cc1cc2ccccc2nc1-c1cn(CCC(F)(F)C(F)(F)C(F)(F)C(F)(F)C(F)(F)C(F)(F)C(F)(F)C(F)(F)F)nn1	56.6 µg/mL (≈ 86.2 µM)
CCCCc1cc2ccccc2nc1-c1cn(CCC(F)(F)C(F)(F)C(F)(F)C(F)(F)C(F)(F)C(F)(F)C(F)(F)C(F)(F)F)nn1	59.1 µg/mL (≈ 84.6 µM)
CCCCCCCCCCn1cc(-c2nc3ccccc3cc2C)nn1	> 100 µg/mL
CCCCCc1cc2ccccc2nc1-c1cn(-c2ccc(F)cc2)nn1	67.5 µg/mL (≈ 187 µM)
CCCCCc1cc2ccccc2nc1-c1cn(CCC(F)(F)C(F)(F)C(F)(F)C(F)(F)C(F)(F)C(F)(F)C(F)(F)C(F)(F)F)nn1	> 100 µg/mL
CCCCCCCCCCn1cc(-c2nc3ccccc3cc2CCCC)nn1	25.2 µg/mL (≈ 64.3 µM)
CCc1cc2ccccc2nc1-c1cn(CCC(F)(F)C(F)(F)C(F)(F)C(F)(F)C(F)(F)C(F)(F)C(F)(F)C(F)(F)F)nn1	55.9 µg/mL (≈ 83.4 µM)
CCCc1cc2ccccc2nc1-c1cn(-c2ccc(F)cc2)nn1	67.4 µg/mL (≈ 203 µM)
Cc1cc2ccccc2nc1-c1cn(-c2ccc(F)cc2)nn1	65.6 µg/mL (≈ 215 µM)
CCc1cc2ccccc2nc1-c1cn(-c2ccc(F)cc2)nn1	> 100 µg/mL
CCCCCCCCCCn1cc(-c2nc3ccccc3cc2CCC)nn1	26.6 µg/mL (≈ 70.2 µM)

tested on: COLO 205; assay: Cytotoxicity against human COLO205 cells after 24 hrs by MTT assay; format: functional, cell-based; conditions: COLO 205, 24 h

SMILES	IC50
CCCCc1cc2ccccc2nc1-c1cn(-c2ccc(F)cc2)nn1	> 100 µg/mL
CCCCCCCCCCn1cc(-c2nc3ccccc3cc2CCCCC)nn1	> 100 µg/mL
O=c1[nH]cc(F)c(=O)[nH]1 [FLUOROURACIL]	4.03 µg/mL (≈ 31 µM)
CCCc1cc2ccccc2nc1-c1cn(CCC(F)(F)C(F)(F)C(F)(F)C(F)(F)C(F)(F)C(F)(F)C(F)(F)C(F)(F)F)nn1	> 100 µg/mL
CCCCCCCCCCn1cc(-c2nc3ccccc3cc2CC)nn1	> 100 µg/mL
Cc1cc2ccccc2nc1-c1cn(CCC(F)(F)C(F)(F)C(F)(F)C(F)(F)C(F)(F)C(F)(F)C(F)(F)C(F)(F)F)nn1	75.8 µg/mL (≈ 116 µM)
CCCCc1cc2ccccc2nc1-c1cn(CCC(F)(F)C(F)(F)C(F)(F)C(F)(F)C(F)(F)C(F)(F)C(F)(F)C(F)(F)F)nn1	> 100 µg/mL
CCCCCCCCCCn1cc(-c2nc3ccccc3cc2C)nn1	44.5 µg/mL (≈ 127 µM)
CCCCCc1cc2ccccc2nc1-c1cn(-c2ccc(F)cc2)nn1	> 100 µg/mL
CCCCCc1cc2ccccc2nc1-c1cn(CCC(F)(F)C(F)(F)C(F)(F)C(F)(F)C(F)(F)C(F)(F)C(F)(F)C(F)(F)F)nn1	> 100 µg/mL
CCCCCCCCCCn1cc(-c2nc3ccccc3cc2CCCC)nn1	> 100 µg/mL
CCc1cc2ccccc2nc1-c1cn(CCC(F)(F)C(F)(F)C(F)(F)C(F)(F)C(F)(F)C(F)(F)C(F)(F)C(F)(F)F)nn1	95.2 µg/mL (≈ 142 µM)
CCCc1cc2ccccc2nc1-c1cn(-c2ccc(F)cc2)nn1	> 100 µg/mL
Cc1cc2ccccc2nc1-c1cn(-c2ccc(F)cc2)nn1	> 100 µg/mL
CCc1cc2ccccc2nc1-c1cn(-c2ccc(F)cc2)nn1	> 100 µg/mL
CCCCCCCCCCn1cc(-c2nc3ccccc3cc2CCC)nn1	> 100 µg/mL

From ChEMBL document CHEMBL2331112, “Synthesis of novel 2-alkyl triazole-3-alkyl substituted quinoline derivatives and their cytotoxic activity” (Bioorg Med Chem Lett, 2013)
